Measurements taken from publication PMC6349869, “The palladacycle complex AJ-5 induces apoptotic cell death while reducing autophagic flux in rhabdomyosarcoma cells” (Cell Death Discovery, 2019).

Key:
HT1080 cells = experiment: MTT cell viability assay, HT1080 fibrosarcoma; format: cell-based, human; settings: 48 h
RH30 cells = experiment: Autophagic flux by western blotting (p62; LC3II with bafilomycin A1), RH30; format: cell-based, human
Method: AJ-5, synthesized as previously described, was dissolved in dimethyl sulfoxide (DMSO) (D8418; Sigma Aldrich) to give a 5 mM AJ-5 stock which was stored at room temperature (RT) and used within 5 days. AJ-5 was diluted in cell culture medium to achieve the desired final concentration and a vehicle control (DMSO) of the same concentration was prepared simultaneously. Cells were treated at a confluency of 60%. For western blot experiments to determine autophagy flux, cells were treated with 200 nM bafilomycin A1 (B1793; Sigma Aldrich) for 2 h post AJ-5 treatment. Doxorubicin (z/26/0167; Teva Pharmaceutical Industries Ltd, Israel) was used as a positive control in Caspase-Glo experiments at a concentration of 0.5 µM.
Cells were lysed at 4 °C in whole-cell lysis buffer (0.125 M Tris-HCl pH 6.8, 4% SDS, 0.2% glycerol, 0.1% β-mercaptoethanol and a pinch of bromophenol blue) and boiled for 10 min. Proteins were resolved by SDS-PAGE (6–15% gels) and transferred to Hybond ECL membranes (Amersham, UK). […] Densitometry readings were obtained using ImageJ v1.50i[58] and protein expression levels were represented as a ratio of protein of interest/p38 loading control normalized to the vehicletreated control sample where appropriate. […]

[1] = Pharmacokinetics in whole blood of healthy mice; format: in vivo, MF1 mice; settings: for Cmax: measured as Pd
Method: Pharmacokinetic parameters of AJ-5 were determined after IV, IP and PO dosing to MF1 nude mice randomly divided into groups. AJ-5 was prepared in the respective formulations immediately prior to dosing. For the IV group, the compound was made up in a mixture of 10% DMSO and 90% of an IV mixture, which consisted of 60% propylene glycol, 10% ethanol and 30% polyethylene glycol. For the PO group, AJ-5 was dissolved in DMSO and a hydroxypropylmethylcellulose solution (0.5% in water) containing 0.2% Tween 80 in a ratio of 1:9. For the IP group, AJ-5 was dissolved in 10% DMSO and 90% phosphate buffer solution. Mice were permitted access to food and water ad libitum. AJ-5 was administered (100 μL) by oral gavage at a dose of 20 mg/kg (n = 3), intravenously into the penile dorsal vein at a dose of 2 mg/kg (n = 2) and intraperitoneally at a dose of 2 mg/kg (n = 3).
Blood samples (20 μL per sample) were collected by tail tip bleeding in lithium heparin tubes at predetermined time points to evaluate the kinetic profile over 24 h. Samples were stored at −80 °C until analysis. Blood samples together with calibration standards and quality controls were quantified using inductively coupled plasma mass spectrometry. All results reported are for palladium (Pd). Pharmacokinetic parameters of the AJ-5 complex were determined using non-compartmental analysis in PK Solutions 2.0 (Summit Research Systems, Montrose CO, USA).

## CC(C)c1cccc(C(C)C)c1[N+]1=Cc2cccc[c]2[Pd-2]1([Cl])[P+](CC[P+](c1ccccc1)(c1ccccc1)[Pd-2]1([Cl])[c]2ccccc2C=[N+]1c1c(C(C)C)cccc1C(C)C)(c1ccccc1)c1ccccc1 (stereo not drawn) [AJ-5]
HT1080 cells
  IC50: < 300 nM
RH30 cells; RH30, 0.1 µM or IC50, 24 and 48 h
  Autophagic flux judged by p62 levels: appears to reduce autophagic flux
RH30 cells; RH30, IC50 24 h then 200 nM bafilomycin A1 2 h
  LC3II in the presence of bafilomycin A1: decreased levels of LC3II
[1]; IP 2 mg/kg
  AUC0-∞: 88 ± 67 µmol·min/L
  BA: 49 ± 38%
  Tmax: 4.0 ± 0.00 h
  area under the curve: 88 min.µM/L
  Cmax: 30 ± 10 nM
[1]; IV 2 mg/kg
  AUC0-∞: 179 ± 12 µmol·min/L
  CL: 9.2 mL/min/kg
  Vd: 8.8 L/kg
[1]; IV 2 mg/kg, 2 mg/kg
  t1/2: 11.2 ± 4.8 h
[1]; PO 20 mg/kg
  AUC0-∞: 11 ± 2 µmol·min/L
  BA: 1 ± 0.1%
  Tmax: 0.8 ± 0.3 h
  area under the curve: 11 min.µM/L
  Cmax: 6 ± 7 nM
[1]; ratio of AUC
  Exposure after IP 2 mg/kg compared to PO 20 mg/kg: eight-fold higher
